Measurements published in patent publication US20240059689A1, “PURINE DERIVATIVES AS ANTICANCER AGENTS” (Tango Therapeutics, Inc., priority 2021, published 2024).

Legend:
monoubiquitinated PCNA = assay: AlphaLISA assay measuring monoubiquitinated PCNA in MDA-MB-436; format: cell-based; conditions: Homo sapiens, MDA-MB-436, monoubiquitinated PCNA, read-out: Alpha Lisa IC50
From the text: Table 1 also indicates IC50 values for exemplary compounds in an AlphaLISA assay measuring monoubiquitinated PCNA in a BRCA1 mutant cell line (MDA-MB-436; column 7).

USP1-UAF1 = USP1-UAF1 (Homo sapiens, UniProt O94782); assay: Ubiquitin Rhodamine assay of USP1-UAF1 activity; format: biochemical
Chain of USP1-UAF1 (O94782 whole entry): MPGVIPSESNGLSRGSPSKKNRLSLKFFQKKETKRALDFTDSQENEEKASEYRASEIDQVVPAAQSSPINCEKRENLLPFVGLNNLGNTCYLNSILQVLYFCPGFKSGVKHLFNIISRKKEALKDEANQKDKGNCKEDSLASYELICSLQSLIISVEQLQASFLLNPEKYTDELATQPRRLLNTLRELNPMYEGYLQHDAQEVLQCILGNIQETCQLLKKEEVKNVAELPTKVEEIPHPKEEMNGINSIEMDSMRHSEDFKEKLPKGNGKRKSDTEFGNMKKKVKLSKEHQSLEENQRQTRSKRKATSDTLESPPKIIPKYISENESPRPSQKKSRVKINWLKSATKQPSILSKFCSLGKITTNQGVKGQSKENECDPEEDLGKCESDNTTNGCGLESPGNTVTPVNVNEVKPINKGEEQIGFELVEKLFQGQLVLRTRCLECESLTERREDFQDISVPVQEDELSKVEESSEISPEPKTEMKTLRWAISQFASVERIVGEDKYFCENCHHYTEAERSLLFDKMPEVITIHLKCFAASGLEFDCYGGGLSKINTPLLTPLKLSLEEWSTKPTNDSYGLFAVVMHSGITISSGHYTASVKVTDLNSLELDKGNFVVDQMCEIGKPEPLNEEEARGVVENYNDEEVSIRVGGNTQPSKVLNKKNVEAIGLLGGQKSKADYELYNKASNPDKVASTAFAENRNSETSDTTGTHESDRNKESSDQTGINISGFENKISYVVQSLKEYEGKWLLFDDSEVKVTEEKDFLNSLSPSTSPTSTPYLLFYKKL
Chain of USP1-UAF1 (Q8TAF3 whole entry partner): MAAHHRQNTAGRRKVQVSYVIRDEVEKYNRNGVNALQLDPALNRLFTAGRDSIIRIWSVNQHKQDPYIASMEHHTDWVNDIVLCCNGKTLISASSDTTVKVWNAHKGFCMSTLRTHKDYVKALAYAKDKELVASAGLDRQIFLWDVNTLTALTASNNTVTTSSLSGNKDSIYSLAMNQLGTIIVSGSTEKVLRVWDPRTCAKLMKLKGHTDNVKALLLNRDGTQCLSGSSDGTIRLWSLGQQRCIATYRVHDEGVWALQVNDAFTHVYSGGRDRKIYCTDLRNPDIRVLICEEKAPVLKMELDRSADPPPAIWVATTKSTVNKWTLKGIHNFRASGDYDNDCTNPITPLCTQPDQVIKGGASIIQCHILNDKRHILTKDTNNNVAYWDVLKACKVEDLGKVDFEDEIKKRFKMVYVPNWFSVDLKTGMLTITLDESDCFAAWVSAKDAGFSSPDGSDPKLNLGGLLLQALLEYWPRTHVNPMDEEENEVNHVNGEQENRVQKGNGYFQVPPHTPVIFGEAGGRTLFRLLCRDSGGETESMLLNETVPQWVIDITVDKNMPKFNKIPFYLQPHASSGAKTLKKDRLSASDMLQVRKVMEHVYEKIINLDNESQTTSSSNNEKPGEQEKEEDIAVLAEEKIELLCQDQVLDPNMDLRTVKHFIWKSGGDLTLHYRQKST
Description: Certain compounds of the disclosure were assessed for USP1-UAF1 activity in a Ubiquitin Rhodamine assay as described in Biology Example 1.

HCC1954 = assay: Viability assay, BRCA1 WT cell line HCC1954; format: cell-based; conditions: Homo sapiens, HCC1954, viability, read-out: HCC1954 rel IC50
From the text: (§1) Table 1 also indicates IC50 values in a viability assay for a non-isogenic pair of BRCA1 mutant (column 5-MDA-MB-436) and BRCA1 WT (column 6—HCC1954) cell lines. These values indicate the effect of treatment with compound on cell survival.

MDA-MB-436 = assay: Viability assay, BRCA1 mutant cell line MDA-MB-436; format: cell-based; conditions: Homo sapiens, MDA-MB-436, viability, BRCA1 mutant MDA-MB-436; read-out: MDA-MB-436 rel IC50
From the text: as §1

Compound: CC(C)c1ccccc1-c1nc(Cl)c2c(n1)n(Cc1ccc(-c3nc(C(F)(F)F)cn3C)cc1)c(=N)n2C (single isomer, unassigned) [Example A-22a, 6-chloro-2-(2-isopropylphenyl)-7-methyl-9-(4-(1-methyl-4-(trifluoromethyl)-1H-imidazol-2-yl)benzyl)-7,9-dihydro-8H-purin-8-imine]
- IC50 (monoubiquitinated PCNA): 250 to 10000 nM
- IC50 (USP1-UAF1): < 30 nM
- IC50 (HCC1954): 250 to 10000 nM
- IC50 (MDA-MB-436): 250 to 10000 nM

Compound: COc1ncnc(C2CC2)c1-c1ncc2c(n1)n([C@@H](C)c1ccc(-c3nc(C(F)(F)F)cn3C)cc1)c(=N)n2C [Example T-142, 2-(4-cyclopropyl-6-methoxy-pyrimidin-5-yl)-7-methyl-9-[(1S)-1-[4-[1-methyl-4-(trifluoromethyl)imidazol-2-yl]phenyl]ethyl]purin-8-imine]
- IC50 (monoubiquitinated PCNA): 100 to 250 nM
- IC50 (USP1-UAF1): 100 to 10000 nM
- IC50 (HCC1954): ≥ 10000 nM
- IC50 (MDA-MB-436): 100 to 250 nM

Compound: COc1ncnc(C2CC2(F)F)c1-c1ncc2c(n1)n(Cc1ccc(-c3nc(C(F)(F)F)cn3C)cc1)c(=N)n2CC(F)(F)F (stereo not shown) [Example T-116, 2-[4-(2,2-difluorocyclopropyl)-6-methoxy-pyrimidin-5-yl]-9-[[4-[1-methyl-4-(trifluoromethyl)imidazol-2-yl]phenyl]methyl]-7-(2,2,2-trifluoroethyl)purin-8-imine]
- IC50 (monoubiquitinated PCNA): < 100 nM
- IC50 (USP1-UAF1): 100 to 10000 nM
- IC50 (HCC1954): ≥ 10000 nM
- IC50 (MDA-MB-436): < 100 nM

Compound: Cn1cc(C(F)(F)F)nc1-c1ccc(Cn2c(=N)n(C)c3cnc(-c4cccc5c4OC(F)(F)O5)nc32)cc1 [Example T-011, 2-(2,2-difluoro-1,3-benzodioxol-4-yl)-7-methyl-9-[[4-[1-methyl-4-(trifluoromethyl)imidazol-2-yl]phenyl]methyl]purin-8-imine]
- IC50 (monoubiquitinated PCNA): 250 to 10000 nM
- IC50 (USP1-UAF1): 30 to 100 nM
- IC50 (HCC1954): 250 to 10000 nM
- IC50 (MDA-MB-436): 250 to 10000 nM

Compound: CNc1nc(OC)c(-c2ncc3c(n2)n(Cc2ccc(-c4nc(C(F)(F)F)cn4C)cc2)c(=N)n3C)c(C2CC2)n1 [Example T-122, 4-cyclopropyl-5-[8-imino-7-methyl-9-[[4-[1-methyl-4-(trifluoromethyl)imidazol-2-yl]phenyl]methyl]purin-2-yl]-6-methoxy-N-methyl-pyrimidin-2-amine]
- IC50 (monoubiquitinated PCNA): 250 to 10000 nM
- IC50 (USP1-UAF1): 100 to 10000 nM
- IC50 (HCC1954): ≥ 10000 nM
- IC50 (MDA-MB-436): 100 to 250 nM

Compound: Cc1nc(-c2ccccc2C(C)C)nc2c1n(C)c(=N)n2Cc1ccc(-c2nc(C(F)(F)F)cn2C)cc1 [Example A-8, 2-(2-isopropylphenyl)-6,7-dimethyl-9-(4-(1-methyl-4-(trifluoromethyl)-1H-imidazol-2-yl)benzyl)-7,9-dihydro-8H-purin-8-imine]
- IC50 (monoubiquitinated PCNA): < 100 nM
- IC50 (USP1-UAF1): < 30 nM
- IC50 (HCC1954): 250 to 10000 nM
- IC50 (MDA-MB-436): < 100 nM

Compound: Cn1cc(C(F)(F)F)nc1-c1ccc(Cn2c(=N)n(C)c3cnc(-c4ccccc4Cl)nc32)cc1 [Example B-8, 2-(2-chlorophenyl)-7-methyl-9-(4-(1-methyl-4-(trifluoromethyl)-1H-imidazol-2-yl)benzyl)-7,9-dihydro-8H-purin-8-imine]
- IC50 (monoubiquitinated PCNA): 100 to 250 nM
- IC50 (USP1-UAF1): 30 to 100 nM
- IC50 (HCC1954): ≥ 10000 nM
- IC50 (MDA-MB-436): 100 to 250 nM

Compound: COCCn1c(=N)n(Cc2ccc(-c3nc(C(F)(F)F)cn3C)cc2)c2nc(-c3ccccc3C(C)C)ncc21 [Example T-016]
- IC50 (monoubiquitinated PCNA): < 100 nM
- IC50 (USP1-UAF1): < 30 nM
- IC50 (HCC1954): ≥ 10000 nM
- IC50 (MDA-MB-436): < 100 nM

Compound: COc1cc(C)n(-c2ccc(Cn3c(=N)n(C)c4cnc(-c5ccccc5C5CC5)nc43)cc2)n1 [Example T-020]
- IC50 (monoubiquitinated PCNA): 250 to 10000 nM
- IC50 (USP1-UAF1): 100 to 10000 nM
- IC50 (HCC1954): 250 to 10000 nM
- IC50 (MDA-MB-436): 250 to 10000 nM

Compound: CC(C)c1ccccc1-c1ncc2c(n1)n(Cc1ccc(-n3ccc(C(F)(F)F)n3)cc1)c(=N)n2C [Example A-24, 2-(2-isopropylphenyl)-7-methyl-9-(4-(3-(trifluoromethyl)-1H-pyrazol-1-yl)benzyl)-7,9-dihydro-8H-purin-8-imine]
- IC50 (monoubiquitinated PCNA): 250 to 10000 nM
- IC50 (USP1-UAF1): 30 to 100 nM
- IC50 (HCC1954): 250 to 10000 nM
- IC50 (MDA-MB-436): 250 to 10000 nM

Compound: CC(C)c1ccccc1-c1ncc2c(n1)n(Cc1ccc(-c3nc(C(F)(F)F)cn3C)cc1F)c(=N)n2C [Example A-29, 9-(2-fluoro-4-(1-methyl-4-(trifluoromethyl)-1H-imidazol-2-yl)benzyl)-2-(2-isopropylphenyl)-7-methyl-7,9-dihydro-8H-purin-8-imine]
- IC50 (monoubiquitinated PCNA): < 100 nM
- IC50 (USP1-UAF1): < 30 nM
- IC50 (HCC1954): ≥ 10000 nM
- IC50 (MDA-MB-436): < 100 nM

Compound: Cn1cc(C(F)(F)F)nc1-c1ccc(Cn2c(=N)n(C)c3cnc(-c4cccnc4OC(F)(F)F)nc32)cc1 [Example T-053, 7-methyl-9-[[4-[I-methyl-4-(trifluoromethyl)imidazol-2-yl]phenyl]methyl]-2-[2-(trifluoromethoxy)-3-pyridyl]purin-8-imine]
- IC50 (monoubiquitinated PCNA): 100 to 250 nM
- IC50 (USP1-UAF1): < 30 nM
- IC50 (HCC1954): ≥ 10000 nM
- IC50 (MDA-MB-436): < 100 nM

Compound: Cn1cc(C(F)(F)F)nc1-c1ccc(Cn2c(=N)n(C)c3cnc(-c4cccnc4N4CC(F)C4)nc32)cc1 [Example T-023]
- IC50 (monoubiquitinated PCNA): 250 to 10000 nM
- IC50 (USP1-UAF1): 100 to 10000 nM
- IC50 (HCC1954): ≥ 10000 nM
- IC50 (MDA-MB-436): 250 to 10000 nM

Compound: CCn1c(=N)n(Cc2ccc(-c3nc(C(F)(F)F)cn3C)cc2)c2nc(-c3c(OC)ncnc3C3CC3)ncc21 [Example T-139, 2-(4-cyclopropyl-6-methoxy-pyrimidin-5-yl)-7-ethyl-9-[[4-[1-methyl-4-(trifluoromethyl)imidazol-2-yl]phenyl]methyl]purin-8-imine]
- IC50 (monoubiquitinated PCNA): < 100 nM
- IC50 (USP1-UAF1): 30 to 100 nM
- IC50 (HCC1954): ≥ 10000 nM
- IC50 (MDA-MB-436): < 100 nM

Compound: COn1cc(C(F)(F)F)nc1-c1ccc(Cn2c(=N)n(C)c3cnc(-c4ccccc4C(C)C)nc32)cc1 [Example T-061]
- IC50 (monoubiquitinated PCNA): 100 to 250 nM
- IC50 (USP1-UAF1): < 30 nM
- IC50 (HCC1954): 250 to 10000 nM
- IC50 (MDA-MB-436): 100 to 250 nM

Compound: CC(C)c1ccccc1-c1nc(C(N)=O)c2c(n1)n(Cc1ccc(-c3nc(C(F)(F)F)cn3C)cc1)c(=N)n2C [Example A-41, 8-imino-2-(2-isopropylphenyl)-7-methyl-9-(4-(1-methyl-4-(trifluoromethyl)-1H-imidazol-2-yl)benzyl)-8,9-dihydro-7H-purine-6-carboxamide]
- IC50 (monoubiquitinated PCNA): 250 to 10000 nM
- IC50 (USP1-UAF1): 30 to 100 nM
- IC50 (HCC1954): 250 to 10000 nM
- IC50 (MDA-MB-436): 250 to 10000 nM

Compound: C=C(C)c1c(F)cccc1-c1nc(C)c2c(n1)n(Cc1ccc(-c3nc(C(F)(F)F)cn3C)cc1)c(=N)n2C [Example A-31, 2-(3-fluoro-2-(prop-1-en-2-yl)phenyl)-6,7-dimethyl-9-(4-(1-methyl-4-(trifluoromethyl)-1H-imidazol-2-yl)benzyl)-7,9-dihydro-8H-purin-8-imine]
- IC50 (monoubiquitinated PCNA): < 100 nM
- IC50 (USP1-UAF1): < 30 nM
- IC50 (HCC1954): 250 to 10000 nM
- IC50 (MDA-MB-436): < 100 nM

Compound: COc1nccc(C2CC2)c1-c1ncc2c(n1)n(Cc1ccc(-c3nc(C(F)(F)F)cn3C)cc1)c(=N)n2CC(F)(F)F [Example T-141, 2-(4-cyclopropyl-2-methoxy-3-pyridyl)-9-[[4-[1-methyl-4-(trifluoromethyl)imidazol-2-yl]phenyl]methyl]-7-(2,2,2-trifluoroethyl)purin-8-imine]
- IC50 (monoubiquitinated PCNA): 100 to 250 nM
- IC50 (USP1-UAF1): 100 to 10000 nM
- IC50 (HCC1954): ≥ 10000 nM
- IC50 (MDA-MB-436): 100 to 250 nM

Compound: CC(C)c1ccccc1-c1ncc2c(n1)n(C[C@H]1CC[C@H](c3nc(C(F)(F)F)cn3C)CC1)c(=N)n2C [Example T-030]
- IC50 (monoubiquitinated PCNA): < 100 nM
- IC50 (USP1-UAF1): 100 to 10000 nM
- IC50 (HCC1954): 250 to 10000 nM
- IC50 (MDA-MB-436): < 100 nM

Compound: CC(C)c1cc(F)ccc1-c1ncc2c(n1)n(Cc1ccc(-c3nc(C(F)(F)F)cn3C)cc1)c(=N)n2C [Example B-10, 2-(4-fluoro-2-isopropylphenyl)-7-methyl-9-(4-(1-methyl-4-(trifluoromethyl)-1H-imidazol-2-yl)benzyl)-7,9-dihydro-8H-purin-8-imine]
- IC50 (monoubiquitinated PCNA): 100 to 250 nM
- IC50 (USP1-UAF1): < 30 nM
- IC50 (HCC1954): 250 to 10000 nM
- IC50 (MDA-MB-436): 100 to 250 nM

Compound: COc1ncccc1-c1ncc2c(n1)n(Cc1ccc(-c3nc(C(F)(F)F)cn3CC(F)F)cc1)c(=N)n2C [Example T-060]
- IC50 (monoubiquitinated PCNA): 250 to 10000 nM
- IC50 (USP1-UAF1): 100 to 10000 nM
- IC50 (HCC1954): ≥ 10000 nM
- IC50 (MDA-MB-436): ≥ 10000 nM

Compound: Cn1cc(C(F)(F)F)nc1-c1ccc(Cn2c(=N)n(C)c3cnc(-c4c(C5CC5)ncnc4C(F)(F)F)nc32)cc1 [Example T-103, 2-(4-cyclopropyl-6-(trifluoromethyl)pyrimidin-5-yl)-7-methyl-9-(4-(1-methyl-4-(trifluoromethyl)-1H-imidazol-2-yl)benzyl)-7H-purin-8(9H)-imine]
- IC50 (monoubiquitinated PCNA): 100 to 250 nM
- IC50 (USP1-UAF1): 30 to 100 nM
- IC50 (HCC1954): ≥ 10000 nM
- IC50 (MDA-MB-436): 100 to 250 nM

Compound: COc1nccc(C#N)c1-c1ncc2c(n1)n(Cc1ccc(-c3nc(C(F)(F)F)cn3C)cc1)c(=N)n2C [Example T-008]
- IC50 (monoubiquitinated PCNA): 100 to 250 nM
- IC50 (USP1-UAF1): 30 to 100 nM
- IC50 (HCC1954): ≥ 10000 nM
- IC50 (MDA-MB-436): 100 to 250 nM

Compound: Cc1cccc(C(C)C)c1-c1ncc2c(n1)n(Cc1ccc(-c3nc(C(F)(F)F)cn3C)cc1)c(=N)n2C [Example T-015, 2-(2-isopropyl-6-methyl-phenyl)-7-methyl-9-[[4-[1-methyl-4-(trifluoromethyl)imidazol-2-yl]phenyl]methyl]purin-8-imine]
- IC50 (monoubiquitinated PCNA): 100 to 250 nM
- IC50 (USP1-UAF1): < 30 nM
- IC50 (HCC1954): ≥ 10000 nM
- IC50 (MDA-MB-436): 100 to 250 nM

Compound: CC(C)c1ccccc1-c1ncc2c(n1)n(C1(c3ccc(-c4nc(C(F)(F)F)cn4C)cc3)CC1)c(=N)n2C [Example T-003, 2-(2-isopropylphenyl)-7-methyl-9-[1-[4-[1-methyl-4-(trifluoromethyl)imidazol-2-yl]phenyl]cyclopropyl]purin-8-imine]
- IC50 (monoubiquitinated PCNA): < 100 nM
- IC50 (USP1-UAF1): < 30 nM
- IC50 (HCC1954): 250 to 10000 nM
- IC50 (MDA-MB-436): < 100 nM
